According to PubChem BioAssay (NCI):
Values joined by “and” are separate entries in the source; they are usually repeats but may differ in a detail not shown here. Equal entries are not always repeated.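 Five compound concentrations were applied to cells in 96-well plates for 48 hours; endpoints were derived by simple linear interpolation of the resulting dose-response curve. GI50 marks 50% less growth. TGI marks complete inhibition of growth.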 Active and inactive are the calls of the source. Cut-off read from the data, not from the text of the source: active = GI50 below about 0.43 µM; inactive = the rest.

These molecules were tested on SNB-19 CNS (assay: NCI tumour cell line growth inhibition, 48 h).

`COC(=O)C1C(C(=O)OC)C2(OC)c3ccccc3-c3ccccc3C12` (configuration not stated) and `CC1=C(C(=O)Nc2ccccc2C)C(c2ccc(Cl)c(Cl)c2)C(C(=O)Nc2ccccc2C)=C(C)N1` cannot be ordered by TGI: > 100 µM for the first, > 100 µM for the second.

First: CCN(CC)CC(O)CNc1ccc(NCC2CO2)c2c1C(=O)c1ccccc1C2=O (configuration not stated)
Second: CCNC(=O)CCN(C(=O)O)S(=O)(=O)c1ccc(NC(=O)c2ccccc2)cc1
The TGI of the first is lower: 7.52 µM for the first, > 100 µM for the second.

Going from `CC(=O)c1cccc(N2COC(C)(C)c3nc4ccccc4n3C2)c1` to `O=C(/C=C/c1ccc([N+](=O)[O-])o1)N1CCN(Cc2ccccc2)CC1`, the TGI falls from > 100 µM to 30.5 µM.

`CCOC(=O)NC(=O)c1cn(CC(=O)NCC(=O)NCC(=O)NCCCN2CCN(CCCNC(=O)CNC(=O)CNC(=O)Cn3cc(C(=O)NC(=O)OCC)c(=O)[nH]c3=O)CC2)c(=O)[nH]c1=O` and `CCCCOC(=O)NC(=O)c1cn(CCCOC(=O)CCCCCCCCC(=O)OCCCn2cc(C(=O)NC(=O)OCCCC)c(=O)[nH]c2=O)c(=O)[nH]c1=O` cannot be ordered by TGI: > 100 µM for the first, > 100 µM for the second.

`CC[C@@H]1OC2(C)CC(S(=O)(=O)c3ccccc3O)CC1O2` (some centres not stated) and `CC(=O)OCC1OC(N2C(=O)C(=O)c3cc(C)ccc32)C(OC(C)=O)C(OC(C)=O)C1OC(C)=O` (configuration not stated) cannot be ordered by TGI: > 100 µM for the first, > 100 µM for the second.

Going from `CC(=O)Nc1ccc(C(=O)NN2C(=O)C(Cl)C2c2ccc(Cl)cc2)cc1` (configuration not stated) to `O=[N+]([O-])c1cccc(/C=N\NS(=O)(=O)c2ccc(Cl)cc2)c1O`, the TGI rises from 59.2 µM to > 100 µM.

First: CCCCc1c2c(nc3c1CCC/C3=C\c1ccccc1)C(=O)CCC2
Second: CCOC(=O)Nc1nc2ccc(Cn3cccc3)cc2[nH]1
The TGI of the first is lower: 44.2 µM for the first, > 100 µM for the second.

`C=CC1(C(=O)O)CCC(C(C)(C)C)CC1` (configuration not stated) and `O=C(Nc1cc(Cl)c(Cl)cc1Cl)C(=O)C1C=CCS1(=O)=O` (configuration not stated) cannot be ordered by TGI: > 100 µM for the first, > 100 µM for the second.

The molecules below were run on HOP-18 NSCLC (assay: NCI tumour cell line growth inhibition, 48 h).

Going from `COC(=O)C1C(C(=O)OC)C2(OC)c3ccccc3-c3ccccc3C12` (configuration not stated) to `CC1=C(C(=O)Nc2ccccc2C)C(c2ccc(Cl)c(Cl)c2)C(C(=O)Nc2ccccc2C)=C(C)N1`, the TGI falls from > 100 µM to 69.4 µM.

First: CCN(CC)CC(O)CNc1ccc(NCC2CO2)c2c1C(=O)c1ccccc1C2=O (configuration not stated)
Second: CCNC(=O)CCN(C(=O)O)S(=O)(=O)c1ccc(NC(=O)c2ccccc2)cc1
The TGI of the first is lower: 37 µM for the first, > 100 µM for the second.

First: CC(=O)c1cccc(N2COC(C)(C)c3nc4ccccc4n3C2)c1
Second: O=C(/C=C/c1ccc([N+](=O)[O-])o1)N1CCN(Cc2ccccc2)CC1
The TGI of the first is higher: > 100 µM for the first, 37.1 µM for the second.

`CCOC(=O)NC(=O)c1cn(CC(=O)NCC(=O)NCC(=O)NCCCN2CCN(CCCNC(=O)CNC(=O)CNC(=O)Cn3cc(C(=O)NC(=O)OCC)c(=O)[nH]c3=O)CC2)c(=O)[nH]c1=O` and `CCCCOC(=O)NC(=O)c1cn(CCCOC(=O)CCCCCCCCC(=O)OCCCn2cc(C(=O)NC(=O)OCCCC)c(=O)[nH]c2=O)c(=O)[nH]c1=O` cannot be ordered by TGI: > 100 µM for the first, > 100 µM for the second.

`CC[C@@H]1OC2(C)CC(S(=O)(=O)c3ccccc3O)CC1O2` (some centres not stated) and `CC(=O)OCC1OC(N2C(=O)C(=O)c3cc(C)ccc32)C(OC(C)=O)C(OC(C)=O)C1OC(C)=O` (configuration not stated) cannot be ordered by TGI: > 100 µM for the first, > 100 µM for the second.

`CC(=O)Nc1ccc(C(=O)NN2C(=O)C(Cl)C2c2ccc(Cl)cc2)cc1` (configuration not stated) and `O=[N+]([O-])c1cccc(/C=N\NS(=O)(=O)c2ccc(Cl)cc2)c1O` cannot be ordered by TGI: > 100 µM for the first, > 100 µM for the second.

First: CCCCc1c2c(nc3c1CCC/C3=C\c1ccccc1)C(=O)CCC2
Second: CCOC(=O)Nc1nc2ccc(Cn3cccc3)cc2[nH]1
The TGI of the first is lower: 79 µM for the first, > 100 µM for the second.

`C=CC1(C(=O)O)CCC(C(C)(C)C)CC1` (configuration not stated) and `O=C(Nc1cc(Cl)c(Cl)cc1Cl)C(=O)C1C=CCS1(=O)=O` (configuration not stated) cannot be ordered by TGI: > 100 µM for the first, > 100 µM for the second.

In the case of `Cc1c[nH]c2c(O)cc3c(c12)[C@H](CCl)CN3C(=O)c1cc2cc(NC(=O)Nc3ccc4[nH]c(C(=O)N5C[C@@H](CCl)c6c5cc(O)c5[nH]cc(C)c65)cc4c3)ccc2[nH]1`, the outcome is reported as “inactive”.

What follows are molecules tested on HCT-15 colon (assay: NCI tumour cell line growth inhibition, 48 h).

Compared with `COC(=O)C1C(C(=O)OC)C2(OC)c3ccccc3-c3ccccc3C12` (configuration not stated), `CC1=C(C(=O)Nc2ccccc2C)C(c2ccc(Cl)c(Cl)c2)C(C(=O)Nc2ccccc2C)=C(C)N1` is lower in TGI: > 100 µM for the first, 47.2 µM for the second.

Going from `CCN(CC)CC(O)CNc1ccc(NCC2CO2)c2c1C(=O)c1ccccc1C2=O` (configuration not stated) to `CCNC(=O)CCN(C(=O)O)S(=O)(=O)c1ccc(NC(=O)c2ccccc2)cc1`, the TGI rises from 6.35 µM to > 100 µM.

Going from `CC(=O)c1cccc(N2COC(C)(C)c3nc4ccccc4n3C2)c1` to `O=C(/C=C/c1ccc([N+](=O)[O-])o1)N1CCN(Cc2ccccc2)CC1`, the TGI falls from > 100 µM to 15.9 µM.

`CCOC(=O)NC(=O)c1cn(CC(=O)NCC(=O)NCC(=O)NCCCN2CCN(CCCNC(=O)CNC(=O)CNC(=O)Cn3cc(C(=O)NC(=O)OCC)c(=O)[nH]c3=O)CC2)c(=O)[nH]c1=O` and `CCCCOC(=O)NC(=O)c1cn(CCCOC(=O)CCCCCCCCC(=O)OCCCn2cc(C(=O)NC(=O)OCCCC)c(=O)[nH]c2=O)c(=O)[nH]c1=O` cannot be ordered by TGI: > 100 µM for the first, > 100 µM for the second.

`CC[C@@H]1OC2(C)CC(S(=O)(=O)c3ccccc3O)CC1O2` (some centres not stated) and `CC(=O)OCC1OC(N2C(=O)C(=O)c3cc(C)ccc32)C(OC(C)=O)C(OC(C)=O)C1OC(C)=O` (configuration not stated) cannot be ordered by TGI: > 100 µM for the first, > 100 µM for the second.

`CC(=O)Nc1ccc(C(=O)NN2C(=O)C(Cl)C2c2ccc(Cl)cc2)cc1` (configuration not stated) and `O=[N+]([O-])c1cccc(/C=N\NS(=O)(=O)c2ccc(Cl)cc2)c1O` cannot be ordered by TGI: > 100 µM for the first, > 100 µM for the second.

Going from `CCCCc1c2c(nc3c1CCC/C3=C\c1ccccc1)C(=O)CCC2` to `CCOC(=O)Nc1nc2ccc(Cn3cccc3)cc2[nH]1`, the TGI rises from 51.9 µM to > 100 µM.

`C=CC1(C(=O)O)CCC(C(C)(C)C)CC1` (configuration not stated) and `O=C(Nc1cc(Cl)c(Cl)cc1Cl)C(=O)C1C=CCS1(=O)=O` (configuration not stated) cannot be ordered by TGI: > 100 µM for the first, > 100 µM for the second.

`CCN(CC)CC(O)CNc1ccc(NCC2CO2)c2c1C(=O)c1ccccc1C2=O` (configuration not stated) showed a GI50 of 0.417 µM.

For `Cc1c[nH]c2c(O)cc3c(c12)[C@H](CCl)CN3C(=O)c1cc2cc(NC(=O)Nc3ccc4[nH]c(C(=O)N5C[C@@H](CCl)c6c5cc(O)c5[nH]cc(C)c65)cc4c3)ccc2[nH]1`, the GI50 was 47.9 µM and 0.000888 µg/mL.

With `Cc1c[nH]c2c(O)cc3c(c12)[C@H](CCl)CN3C(=O)c1cc2cc(NC(=O)Nc3ccc4[nH]c(C(=O)N5C[C@@H](CCl)c6c5cc(O)c5[nH]cc(C)c65)cc4c3)ccc2[nH]1` the TGI was > 100 µM and 0.00213 µg/mL.

What follows are molecules tested on NCI-H522 lung (assay: NCI tumour cell line growth inhibition, 48 h).

Going from `COC(=O)C1C(C(=O)OC)C2(OC)c3ccccc3-c3ccccc3C12` (configuration not stated) to `CC1=C(C(=O)Nc2ccccc2C)C(c2ccc(Cl)c(Cl)c2)C(C(=O)Nc2ccccc2C)=C(C)N1`, the TGI falls from 88.8 µM to 29.1 µM (3.1-fold).

Compared with `CCN(CC)CC(O)CNc1ccc(NCC2CO2)c2c1C(=O)c1ccccc1C2=O` (configuration not stated), `CCNC(=O)CCN(C(=O)O)S(=O)(=O)c1ccc(NC(=O)c2ccccc2)cc1` is higher in TGI: 2.41 µM for the first, > 100 µM for the second.

Compared with `CC(=O)c1cccc(N2COC(C)(C)c3nc4ccccc4n3C2)c1`, `O=C(/C=C/c1ccc([N+](=O)[O-])o1)N1CCN(Cc2ccccc2)CC1` is lower in TGI: > 100 µM for the first, 8.16 µM for the second.

`CCOC(=O)NC(=O)c1cn(CC(=O)NCC(=O)NCC(=O)NCCCN2CCN(CCCNC(=O)CNC(=O)CNC(=O)Cn3cc(C(=O)NC(=O)OCC)c(=O)[nH]c3=O)CC2)c(=O)[nH]c1=O` and `CC(=O)OCC1OC(N2C(=O)C(=O)c3cc(C)ccc32)C(OC(C)=O)C(OC(C)=O)C1OC(C)=O` (configuration not stated) cannot be ordered by TGI: > 100 µM for the first, > 100 µM for the second.

Going from `CC[C@@H]1OC2(C)CC(S(=O)(=O)c3ccccc3O)CC1O2` (some centres not stated) to `CCCCc1c2c(nc3c1CCC/C3=C\c1ccccc1)C(=O)CCC2`, the TGI falls from > 100 µM to 29.5 µM.

`CC(=O)Nc1ccc(C(=O)NN2C(=O)C(Cl)C2c2ccc(Cl)cc2)cc1` (configuration not stated) and `O=[N+]([O-])c1cccc(/C=N\NS(=O)(=O)c2ccc(Cl)cc2)c1O` cannot be ordered by TGI: > 100 µM for the first, > 100 µM for the second.

`C=CC1(C(=O)O)CCC(C(C)(C)C)CC1` (configuration not stated) and `O=C(Nc1cc(Cl)c(Cl)cc1Cl)C(=O)C1C=CCS1(=O)=O` (configuration not stated) cannot be ordered by TGI: > 100 µM for the first, > 100 µM for the second.

In the case of `CCOC(=O)Nc1nc2ccc(Cn3cccc3)cc2[nH]1`, the TGI is reported as 2.1 µM.

Molecule `CCN(CC)CC(O)CNc1ccc(NCC2CO2)c2c1C(=O)c1ccccc1C2=O` (configuration not stated) has a GI50 of 0.958 µM.

With `Cc1c[nH]c2c(O)cc3c(c12)[C@H](CCl)CN3C(=O)c1cc2cc(NC(=O)Nc3ccc4[nH]c(C(=O)N5C[C@@H](CCl)c6c5cc(O)c5[nH]cc(C)c65)cc4c3)ccc2[nH]1` the GI50 was 4.49 nM and 8.9e-07 µg/mL.

For `Cc1c[nH]c2c(O)cc3c(c12)[C@H](CCl)CN3C(=O)c1cc2cc(NC(=O)Nc3ccc4[nH]c(C(=O)N5C[C@@H](CCl)c6c5cc(O)c5[nH]cc(C)c65)cc4c3)ccc2[nH]1`, the TGI was 20.2 nM and 2e-06 µg/mL.

These molecules were tested on BT-549 breast (assay: NCI tumour cell line growth inhibition, 48 h).

`CCN(CC)CC(O)CNc1ccc(NCC2CO2)c2c1C(=O)c1ccccc1C2=O` (configuration not stated) was tested, and the GI50 was 1.22 µM.

`CCN(CC)CC(O)CNc1ccc(NCC2CO2)c2c1C(=O)c1ccccc1C2=O` (configuration not stated) gave a TGI of 4.27 µM.
